Experimental data taken from US10485814B2, “Nicotinamide riboside analogs and pharmaceutical compositions and uses thereof” (GlaxoSmithKline Intellectual Property (No. 2) Limited, priority 2014, dated 2019).
Structures can show the parent of a compound that is named as a salt.

Experiments:
[1] = Plasma hydrolysis of nicotinamide riboside analogs to NR (incubation with rat plasma, LC/MS/MS); type: in vitro ADME; conditions: 10 mM, incubated 30 min at 37° C.
Procedure: Compounds were diluted with rat plasma to a concentration of 10 millimolar (mM). Samples were incubated for 30 min at 37° C., taking 50 microL aliquots for analysis at 0 and 30 min. The aliquots were loaded onto a deep 96 well plate, then 350 microL of 0.1% (v:v) formic acid in acetonitrile was added to each well. The plate was covered and sealed to prevent evaporation, then it was placed on an orbital plate shaker set to 800-900 rps for 5-10 minutes. Next, the plate was centrifuged at around 3000 rpm for 5 min to provide a clear supernatant. For LC/MS/MS analysis, 200 microL of supernatant from each well was transferred onto a clean plate, which was subsequently capped and placed into an autosampler.
LCMS Conditions. For each well, a 10 microL sample was injected via autosampler onto a Chromolithe Performance, RP-18e (100×4.6 mm) column, and eluted with a binary gradient. Solvent A=0.1% formic acid, 0.1% N,N-dibutyl-N-methylamine (DBME) in 2 mM aqueous ammonium acetate (1:1:1000 v:v:v). Solvent B=0.1% formic acid in acetonitrile (1:1000 v:v). The solvent gradient was as follows: 0-0.22 min, 95:5 A:B; […], 95:5 A:B to 30:70 A:B (linear gradient); 5.05-6.05 min, 30:70 A:B; 6.05-6.60 min, 30:70 A:B to 95:5 A:B (linear gradient); 6.60-7.15 min, 95:5 A:B; stop elution at 7.15 min. Nicotinamide riboside eluted at approximately 1.7 min. A triple-quadrupole mass spectrometer was employed for peak identification. The identity of the analyte was confirmed by MS observation of a Q1 peak at m/z=255 (M)^+, and a Q3 peak at m/z=123.1 (M-C5H8O4)^+.
The results are shown in FIG. 3, with the release of free nicotinamide riboside measured using by HPLC-MS at 0, 30, and 60 minute time points (columns 5, 6, and 7 of table shown in FIG. 3). For each of NR esters in Table 3, except nicotinamide riboside tribenzoate, nicotinamide riboside was detected at the 30 minute time point.

[2] = system: HaCaT cells (a human keratinocyte cell line); assay: Intracellular NAD measurement in HaCaT cells (ADPR cyclase enzymatic assay, absorbance 405 nm); type: cell-based
Procedure: HaCaT cells (AddexBio Technologies, San Diego, Calif., Passage 16-19) were grown in Medium DMEM/GlutMax (Life technologies, Grand Island, N.Y.) supplemented with 10% FBS (Life technologies) and Non-essential amino acids (NEAA, Life technologies) and then seeded in 12-well plates (Corning, Tewksbury, Mass.) with a density at 2×10^5 cells per well and 2 ml of culture medium in each well for overnight.
Stock solution of dihydronicotinamide riboside (NRH, GSK3008320A, GSK, RTP, NC) was prepared in ethanol at 100 mM (25.6 mg/ml) and stored at −20° C. Cells were treated with different concentrations of NRH for 3 hrs, washed twice with PBS containing 5 mM EDTA, and then subject to Nicotinamide adenine dinucleotide (NAD) measurement. In brief, acetonitrile (ACN) lysis buffer (Ammonium Acetate (50 mM) and 90% acetonitrile) was added to each well (200 μl/well) to lyse the cells at RT for 5-10 mins by gently rotating on a culture plate shaker at a low speed. Enzyme master mix (300 μM of 5-Amino-(3,4′-bipyridin)-6(1H)-one (Inamrinone) (Sigma-Aldrich), a substrate for ADP ribosyl cyclase (ADPR cyclase)) and 30 nM ADPR Cyclase (Sigma, St. Louis, Mo.), 7.5 μM of N-(2-fluoro-4-(methylsulfonyl)phenyl)-2-methyl-6-(thiazol-5-yl)isonicotinamide (a CD38 inhibitor) in 75 mM HEPES pH7 buffer (Life Technologies)) was added to the lysed cells (400 μl of enzyme master mix/well). Enzymatic reaction was incubated at RT for ˜30 min. At the end of incubation, the supernatant (200 μl) of the reaction solution from each well was transferred to each well of a 96-well plate and absorbance was read twice in the 96-well plate at 405 nm using a plate reader (Spectra Maxplus, Molecular Devices, Sunnyvale, Calif.). A mixture of enzyme master mix and ACN extraction solution at 2:1 ratio was used as a blank reference. NAD (Sigma) was used as a positive control.
HaCaT cells were grown as described in example 23 in the regular cell culture DMEM medium as described earlier or in the Epilife medium without nacinamide (Life Technologies). Cells were treated with different concentrations of NRH or niacinamide (NIA, DSM nutritional products) for 3 hrs, washed twice with PBS containing 5 mM EDTA, and then subject to Nicotinamide adenine dinucleotide (NAD) measurement as described in example 23. A mixture of enzyme master mix and ACN extraction solution at 2:1 ratio for a blank reference. NAD (Sigma) was used as a positive control. […] Both the CD38 inhibitor and Niacinamide increased NAD in the HaCaT cells cultured in the Vit B3 depleted culture medium, and the induction of NAD by niacinamide was dose-dependent (solid bars). However, the induction of NAD by niacinamide (highest at ˜1.5 fold) was low compared to those by NRH. Therefore, NRH is a stronger NAD inducer compared to a CD38 inhibitor or Niacinamide.
HaCaT cells were grown in regular culture media as described in example 1 and seeded in 12-well plates with density at 2×10^5 cells per well and 1 ml of culture medium in each well. NRH stock solution was prepared in ethanol at 100 mM (25.6 mg/ml) and stored at −20° C. Stock solutions of NRH esters were made at 50 mM in DMSO (see FIG. 9B for compound info). Cells were treated with NRH esters and NRH at 150 μM for 6 and 16 hrs, washed twice with PB S containing 5 mM EDTA, and then subject to Nicotinamide adenine dinucleotide (NAD) measurement as described in example 23.
HaCaT cells were grown in regular culture media as described above and seeded in 12-well plates with density at 2×10^5 cells per well and 1 ml of culture medium in each well. NRH stock solution was prepared in ethanol at 100 mM (25.6 mg/ml) and stored at −20° C. NRH (200 μM) was used as a positive control. Because of the possible solubility issue related to NRH monoC16, fatty acid-free bovine serum albumin (defatted BSA, Sigma) was used as a carrier for the compound. NRH monoC16 stock solution (100×) was complexed with defatted BSA ([…]) prior to the treatment, resulting in a NRH monoC16 stock solution (10 ×). […]

[3] = Gravimetric Vapor Sorption (GVS); type: physicochemical; conditions: 90% RH, 25° C.
Procedure: Gravimetric Vapor Sorption (GVS): Samples were analyzed using a VTI corporation (now part of TA Instruments) SGA-100 with Cahn microbalance equipped with quartz sample and reference pans. Samples were dried in the SGA-100 under dry nitrogen for 5 hours at 25° C. followed by a moisture absorption step ramp from 5% relative humidity (RH) to 95% or 90% RH followed by a desorption step ramp back to 5% or 10% RH (all steps at 25° C.). The samples were held at each % RH step for 4 hours.

SMILES	conversion to free nicotinamide riboside [1]	other results
CCCCC(=O)OC[C@H]1O[C@@H]([n+]2cccc(C(N)=O)c2)[C@H](O)[C@@H]1O [NR+ monopentanoate, 3-carbamoyl-1-((2R,3R,4S,5R)-3,4-dihydroxy-5-((pentanoyloxy)methyl)tetrahydrofuran-2-yl)pyridin-1-ium 2,2,2-trifluoroacetate]	converted to free nicotinamide riboside to a significant degree	–
CCCCCCCCCCCC(=O)OC[C@H]1O[C@@H]([n+]2cccc(C(N)=O)c2)[C@H](O)[C@@H]1O.O=C([O-])C(F)(F)F [NR+ monododecanoate, nicotinamide riboside 5′-monododecanoate]	converted to free nicotinamide riboside to a significant degree	–
CCCCCC(=O)OCC1O[C@@H]([n+]2cccc(C(N)=O)c2)[C@H](OC(=O)CCCCC)[C@@H]1OC(=O)CCCCC (stereo partly shown) [NR+ trihexanoate TFA-]	converted to free nicotinamide riboside to a significant degree	–
Cc1cc(C(=O)Nc2ccc(S(C)(=O)=O)cc2F)cc(-c2cncs2)n1 [CD38 inhibitor, N-(2-fluoro-4-(methylsulfonyl)phenyl)-2-methyl-6-(thiazol-5-yl)isonicotinamide, reference compound]	–	NAD elevation ([2]; HaCaT in DMEM medium with Vit B3, highest tested doses, 3 hrs): did not lead to NAD elevation; NAD level ([2]; HaCaT in Vit B3 depleted culture medium, 3 hrs): increased NAD
CCCCCCCCCCC(=O)OC[C@H]1O[C@@H]([n+]2cccc(C(N)=O)c2)[C@H](O)[C@@H]1O [NR+ monoundecanoate, nicotinamide riboside 5′-monoundecanoate]	converted to free nicotinamide riboside to a significant degree	–
CCCCCC(=O)OC[C@H]1O[C@@H]([n+]2cccc(C(N)=O)c2)[C@H](O)[C@@H]1O [NR+ monohexanoate, 3-carbamoyl-1-((2R,3R,4S,5R)-5-((hexanoyloxy)methyl)-3,4-dihydroxytetrahydrofuran-2-yl)pyridin-1-ium 2,2,2-trifluoroacetate]	converted to free nicotinamide riboside to a significant degree	–
CCCCCCCCCC(=O)OC[C@H]1O[C@@H](N2C=CCC(C(N)=O)=C2)[C@H](O)[C@@H]1O [NRH monodecanoate, nicotinamide riboside hydride 5′-monodecanoate]	converted to free nicotinamide riboside to a significant degree	–
CCCCCCCC/C=C\CCCCCCCC(=O)OC[C@H]1O[C@@H]([n+]2cccc(C(N)=O)c2)[C@H](O)[C@@H]1O [NR+ monooleate, 3-carbamoyl-1-((2R,3R,4S,5R)-3,4-dihydroxy-5-((oleoyloxy)methyl)tetrahydrofuran-2-yl)pyridin-1-ium 2,2,2-trifluoroacetate]	converted to free nicotinamide riboside to a significant degree	appearance of treated cells (potential cytotoxicity) ([2]; HaCaT, 150 μM): appeared unhealthy
CCCCC(=O)OC[C@H]1O[C@@H]([n+]2cccc(C(N)=O)c2)[C@H](OC(=O)CCCC)[C@@H]1OC(=O)CCCC [1-((2R,3R,4R,5R)-3,4-bis(pentanoyloxy)-5-((pentanoyloxy)methyl)tetrahydrofuran-2-yl)-3-carbamoylpyridin-1-ium chloride]	converted to free nicotinamide riboside to a significant degree	–
CCCCCC(=O)OC[C@H]1O[C@@H](N2C=CCC(C(N)=O)=C2)[C@H](O)[C@@H]1O [mono C6-NRH derivative, nicotinamide riboside hydride 5′-monohexanoate]	–	GVS weight gain from the dried state [3]: approximately 5%
CCOC(=O)OC[C@H]1O[C@@H](N2C=CCC(C(N)=O)=C2)[C@H](OC(=O)OCC)[C@@H]1OC(=O)OCC [NRH triethylcarbonate, ((2R,3R,4R,5R)-5-(3-carbamoylpyridin-1(4H)-yl)-3,4-bis((ethoxycarbonyl)oxy)-tetrahydrofuran-2-yl)methyl ethylcarbonate]	converted to free nicotinamide riboside to a significant degree	–
NC(=O)c1ccc[n+]([C@@H]2O[C@H](COP(=O)([O-])O)[C@@H](O)[C@H]2O)c1 [Nic mononucleotide, nicotinamide mononucleotide, reference compound]	some amount of conversion to free nicotinamide riboside	–
CCCCCCCCC(=O)OC[C@H]1O[C@@H]([n+]2cccc(C(N)=O)c2)[C@H](O)[C@@H]1O [NR+ monononanoate, 3-carbamoyl-1-((2R,3R,4S,5R)-3,4-dihydroxy-5-((nonanoyloxy)methyl)tetrahydrofuran-2-yl)pyridin-1-ium 2,2,2-trifluoroacetate]	converted to free nicotinamide riboside to a significant degree	–
CCCCCCCCCCCCCC(=O)OC[C@H]1O[C@@H](N2C=CCC(C(N)=O)=C2)[C@H](O)[C@@H]1O [NRH monotetradecanoate, ((2R,3S,4R,5R)-5-(3-carbamoylpyridin-1 (4H)-yl)-3,4-dihydroxytetrahydrofuran-2-yl)methyl tetradecanoate]	converted to free nicotinamide riboside to a significant degree	–
